Earlier results on one substance are cited in patent publication US20130109633A1, “CB-183,315 Compositions and Related Methods” (Cubist Pharmaceuticals, Inc., priority 2011, published 2013).

This series has as its system a broad spectrum of bacteria, including drug-resistant bacteria and C. difficile.

For the substance CB-183,315, the antibacterial activity result was “antibacterial activity against a broad spectrum of bacteria” and the bacteriacidal activity result was “exhibits bacteriacidal activity”.
